# From patent publication US20150309031A2, “COMPOSITIONS AND METHODS FOR PROGNOSIS AND TREATMENT OF CANCER” (NOVAZOI THERANOSTICS, priority 2013, published 2015)
# Key:
# Type in all cases: cell-based
# [1] = system: adult human dermal fibroblasts (HDF); experiment: subG1 (hypodiploid) fraction by flow cytometry, HDFs
# MDA-MB-231 (231) cells = experiment: subG1 (hypodiploid) fraction by flow cytometry, 231 cells
# Description: (§1) Trypsinized cells were resuspended in PBS at 10^6 cells/ml. Cells were then fixed by addition of ice-cold 70% ethanol. Ethanol-fixed cells were kept overnight at 4° C. before staining. Cells were pelleted and washed twice with PBS. Cell pellets were incubated for an hour at room temperature with mouse anti-MPM-2 antibody (Millipore, Mass., USA), followed by 1 h incubation with Alexa-488 anti-mouse secondary antibody (Life Technologies, NY, USA). Finally cells were washed, pelleted and resuspended in propidium iodide-containing isotonic buffer (0.1 mg/mL) and 0.5% Triton X-100. Cell cycle distribution was determined by flow cytometry using an LSR Fortessa Flow cytometer (BD Biosciences, CA, USA) and analyzed using Flowjo software (Tree Star, OR, USA). […] The duration, highest degree, and rapidity of onset of MA varied between drugs, drug concentrations, and cell lines (FIGS. 2A, 2B). In general, the maximum MA achieved was less pronounced in Nos- and PJ-treated cells (FIGS. 2A, 2B). Drug-induced onset of MA was corroborated by substantial increases in cyclin B1 levels in all cell lines (FIG. 2C). […] Instances where the subG1 fraction was elevated without cleaved caspase-3 may either represent caspase-independent cell death or the presence of hypodiploid cells whose fate is unclear.
# [2] = system: human dermal fibroblasts (HDFs); experiment: Centrosome amplification (CA) by microscopy, HDFs; settings: for change of CA over controls (in words): any concentration or time point assessed
# Description: (§2) Consequently, CA was assessed in cultures treated with different concentrations of declustering drugs for 6, 12, 18, or 24 h and untreated controls via microscopy. Centrosomes were identified by γ-tubulin and centrin-2 colocalization at discrete foci. […] The peak percent CA detected over 24 h is shown in FIG. 6 (only statistically significant (P<0.05) increases over control values are represented in the Figures). Representative confocal micrographs of CA in interphase and mitotic cells, both control and drug treated, are depicted in FIG. 7. No significant correlations between the degree of CA (FIG. 5A) and the expression levels of PLK4, Cyclin E, and Aurora A were found (FIG. 4).
# (§3) To determine whether the CA-inducing activity of declustering drugs is restricted to cancer cells, two non-malignant cell lines, mammary fibrocystic (MCF10A) cells and adult human dermal fibroblasts were treated with these drugs. Neither one of RBN, GF or PJ induced CA or cell death (Table 8) in these cell lines. […] In comparison, 10 and 25 μM RBN increased peak CA over controls in interphase cells (p<0.001 and p=0.001, respectively), with the lower concentration dramatically augmenting peak CA to 56% of cells versus 15% for the higher dose (FIG. 9B). Only 10 but not 25 μM RBN increased the extent of CA in mitotic cells, and this upregulation was only slight (10%, p=0.041).
# PC3 cells = experiment: subG1 (hypodiploid) fraction by flow cytometry, PC3 cells
# Description: as §1
# HeLa cells [3] = experiment: subG1 (hypodiploid) fraction by flow cytometry, HeLa cells
# Description: as §1
# 231 cells = experiment: Centrosome amplification (CA) by microscopy, 231 cells; settings: 25 μM
# Description: (§4) Consequently, CA was assessed in cultures treated with different concentrations of declustering drugs for 6, 12, 18, or 24 h and untreated controls via microscopy. […] The peak percent CA detected over 24 h is shown in FIG. 6 (only statistically significant (P<0.05) increases over control values are represented in the Figures). Representative confocal micrographs of CA in interphase and mitotic cells, both control and drug treated, are depicted in FIG. 7. […] To better understand the “potency” of drug-induced CA with time, the average fold change in CA over controls over 24 h was assessed (FIG. 5A), whereby the extent of CA across time points (i.e., 6, 12, 18, and 24 h) was averaged and then divided by the extent of CA in control (i.e., 0 h). […] For Nos and BN, there was no major difference in CA levels in interphase versus mitotic cells.
# [4] = system: mammary fibrocystic (MCF10A) cells; experiment: subG1 (hypodiploid) fraction by flow cytometry, MCF10A cells; settings: for change of peak subG1 percent compared to controls (in words): MCF10A cells; for Peak subG1 percent over 48 h: MCF10A
# MCF10A cells = experiment: Centrosome amplification (CA) by microscopy, MCF10A cells; settings: for change of CA over control levels (in words): interphase and mitotic cells, over 24 h
# Description: as §2, §3
# HDFs and MCF10A cells = experiment: Spindle multipolarity (MP) in non-malignant cell lines
# HeLa cells [5] = experiment: Centrosome amplification (CA) by microscopy, HeLa cells; settings: interphase, 25 μM
# Description: as §4
# [6] = system: MDA-MB-231 (231), PC3, and HeLa cells; experiment: Mitotic arrest (MA) by flow cytometry (MPM2/PI), across cell lines; settings: coarse-grained categories
# Description: Trypsinized cells were resuspended in PBS at 10^6 cells/ml. Cells were then fixed by addition of ice-cold 70% ethanol. Ethanol-fixed cells were kept overnight at 4° C. before staining. Cells were pelleted and washed twice with PBS. Cell pellets were incubated for an hour at room temperature with mouse anti-MPM-2 antibody (Millipore, Mass., USA), followed by 1 h incubation with Alexa-488 anti-mouse secondary antibody (Life Technologies, NY, USA). Finally cells were washed, pelleted and resuspended in propidium iodide-containing isotonic buffer (0.1 mg/mL) and 0.5% Triton X-100. Cell cycle distribution was determined by flow cytometry using an LSR Fortessa Flow cytometer (BD Biosciences, CA, USA) and analyzed using Flowjo software (Tree Star, OR, USA).
# To evaluate the impact of putative declustering drugs on cell cycle progression and hypodiploidy (<2N DNA content, which may indicate apoptotic cells), MDA-MB-231 (231), PC3, and HeLa cells were treated with different concentrations of declustering drugs, stained with propidium iodide, labeled with anti-MPM2 antibody, and then assessed by flow cytometry at multiple time points over 48 h. […] The duration, highest degree, and rapidity of onset of MA varied between drugs, drug concentrations, and cell lines (FIGS. 2A, 2B). In general, the maximum MA achieved was less pronounced in Nos- and PJ-treated cells (FIGS. 2A, 2B). […]
SMILES,Peak subG1 percent over 48 h ([1]; 10 μM),Peak subG1 percent over 48 h ([1]; 25 μM),Peak subG1 percent over 48 h (MDA-MB-231 (231) cells; 10 μM),Peak subG1 percent over 48 h (MDA-MB-231 (231) cells; 25 μM),change of CA over controls (in words) [2],Peak subG1 percent over 48 h (PC3 cells; 10 μM),Peak subG1 percent over 48 h (PC3 cells; 25 μM),Peak subG1 percent over 48 h (HeLa cells [3]; 10 μM),Peak subG1 percent over 48 h (HeLa cells [3]; 25 μM),change of peak subG1 percent compared to controls (in words) [4],Peak subG1 percent over 48 h ([4]; 10 μM),Peak subG1 percent over 48 h ([4]; 25 μM),change of CA over control levels (in words) (MCF10A cells),induction of MP over control levels (HDFs and MCF10A cells),maximum subG1 fraction relative to control (MDA-MB-231 (231) cells; 25 μM),other results
"COc1ccc2c(c1OC)C(=O)O[C@@H]2[C@H]1c2c(cc3c(c2OC)OCO3)CCN1C [Nos, noscapine]",14.8%,11.2%,26.3%,43.9%,did not significantly increase the extent of CA over controls,29.9%,32.7%,25.0%,50.1%,did not cause a significant increase in peak subG1 percent compared to controls,4.1%,4.2%,neither concentrations of Nos or BN significantly increased CA over control levels,,,induction of significant CA (231 cells): failed to induce significant CA
"COC1=CC(=O)C[C@@H](C)[C@]12Oc1c(Cl)c(OC)cc(OC)c1C2=O [GF, griseofulvin]",,32.9%,,62.0%,,,33.7%,,59.5%,did increase peak SubG1 in MCF10A cells compared to controls,,22.7%,,significantly induce MP over control levels,6.4 × control,"Peak subG1 percent over 48 h ([1]; 50 μM): 38.3%; Peak subG1 percent over 48 h (MDA-MB-231 (231) cells; 50 μM): 60.0%; peak CA in interphase cells ([2]; interphase, 25 and 50 μM): 14-15%; Peak subG1 percent over 48 h (PC3 cells; 50 μM): 39.5%; maximum subG1 fraction relative to control (PC3 cells; 50 μM): 16.3 × control; Peak subG1 percent over 48 h (HeLa cells [3]; 50 μM): 79.0%; maximum subG1 fraction relative to control (HeLa cells [3]; 50 μM): 4.3 × control; Peak subG1 percent over 48 h ([4]; 50 μM): 35.1%; peak interphase CA (MCF10A cells; interphase, 25 and 50 μM): 13-16%; change of CA in mitotic cells (in words) (MCF10A cells; mitotic, 25 and 50 μM): no increase was observed in mitotic cells"
"CN(C)CC(=O)Nc1ccc2[nH]c(=O)c3ccccc3c2c1 [PJ, PJ-34]",13.6%,28.2%,37.0%,55.0%,no significant impact on CA in HDFs,62.4%,48.4%,48.5%,64.4%,did not cause a significant increase in peak subG1 percent compared to controls,6.9%,9.1%,increased the peak extent of CA in interphase and mitotic cells,significantly induce MP over control levels,10.4 × control,"fold increase in peak CA extent, interphase cells (HeLa cells [5]): ~20 fold; peak / final extent of CA in interphase cells (HeLa cells [5]): < 20%; maximum subG1 fraction relative to control (PC3 cells; 25 μM): 7.9 × control; maximum subG1 fraction relative to control (HeLa cells [3]; 10 μM): 4.8 × control; peak extent of CA in interphase cells (MCF10A cells; interphase, 10 μM): 8%; mean time to peak MA (MA:TRH) [6]: ~12 h"
